From article PMC10392906 (Advances and Applications in Bioinformatics and Chemistry : …, 2023) come the findings set out here.

This experiment concerns the target T1, pancreatic porcine α-amylase (Sus scrofa, UniProt P00690).
T1 sequence (P00690 16-511): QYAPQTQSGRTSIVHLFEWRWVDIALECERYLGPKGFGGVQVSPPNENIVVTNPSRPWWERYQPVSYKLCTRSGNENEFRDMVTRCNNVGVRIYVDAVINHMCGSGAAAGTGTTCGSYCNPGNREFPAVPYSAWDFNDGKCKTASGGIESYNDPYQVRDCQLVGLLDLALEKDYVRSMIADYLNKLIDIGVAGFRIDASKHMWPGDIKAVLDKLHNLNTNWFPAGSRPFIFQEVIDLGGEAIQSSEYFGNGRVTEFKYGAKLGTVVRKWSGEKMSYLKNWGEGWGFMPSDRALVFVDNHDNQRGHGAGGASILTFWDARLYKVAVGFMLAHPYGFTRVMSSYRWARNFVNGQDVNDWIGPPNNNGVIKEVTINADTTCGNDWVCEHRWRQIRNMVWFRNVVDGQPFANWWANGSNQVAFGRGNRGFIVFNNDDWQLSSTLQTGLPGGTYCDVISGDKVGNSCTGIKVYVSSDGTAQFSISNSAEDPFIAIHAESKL
The experiment is described as follows: α-Amylase inhibitory assay. In kind it is biochemical. As to conditions: for inhibition at 10 µg/mL: read-out: % of Inhibition of α-amylase (Mean ± S.D.), 10 µg/mL.

Turning to `COc1cc(C=Cc2cc(-c3ccccc3)nc(O)n2)ccc1O` [Compound 11, 4-(4-Hydroxy-3-Methoxystyryl)-6-Phenylpyrimidin-2-ol], the inhibition at 10 µg/mL turned out to be 85.17 ± 0.55%.
With `COc1cc(C=CC(=O)CC(c2ccc(N(C)C)cc2)n2ccnc2)ccc1O` (stereo not shown) [Compound 16, 5-(4-(Dimethylamino)phenyl)-1-(4-Hydroxy-3-Methoxyphenyl)-5-(1H-Imidazol-1-yl)pent-1-En-3-One], the inhibition at 10 µg/mL is 87.15 ± 0.46%. Under “versus acarbose”, the “α-amylase inhibitory effect better than acarbose” value was “up to 2 fold”.
As to “4-(-2-(3-(4-(Dimethylamino)phenyl)-4,5-Dihydro-1H-Pyrazol-5-yl)vinyl)-2-Methoxyphenol [Compound 8]”, the “% of Inhibition of α-amylase (Mean ± S.D.)” value (10 µg/mL) is recorded as 85.32±0.36%.
